According to US20100003217A1, “Compounds and Pharmaceutical Compositions for the Treatment of Viral Infections” (priority 2008, published 2010):
Several values for one entry are separate records, joined by “and”; a condition that tells them apart may be missing. Equal values may be shown once.

Columns and labels:
[1] = Metabolite profiling in monkey liver microsomes; type: in vitro ADME; design: key: +: peak detected; ?: peak observed; ND: not detected; details: 50 μM Compound 1, 2 hours
Procedure: Preliminary identification of putative metabolites was conducted by comparing the retention time of observed metabolites with retention times obtained with chemically synthesized standards using the following HPLC-UV method:
Incubations with liver microsomes, liver cytosol or pig liver esterase were conducted in a final volume of 0.1 mL per incubation time point. Pooled microsomal protein (1.0 mg/mL) suspended in incubation buffer (0.1 M potassium phosphate, pH 7.4) was incubated for 2 hours at 37° C. with 50 μM Compound 1 from a stock solution in DMSO (final DMSO concentration was 0.1%); the microsomal reaction was initiated by the addition of an NADPH regenerating system (1.3 mM NADP^+, 3.3 mM glucose-6-phosphate, 0.4 U/ml glucose-6-phosphate dehydrogenase, and 3.3 mM MgCl2, final concentrations). Incubations with no NADPH or no protein served as controls. Reactions were terminated by the addition of 0.1 mL of stop solution (acetonitrile). The samples were vortex-mixed for 30 sec and then centrifuged at 10,000×g for 10 min. The supernatant was dried using a Labconco CentriVap concentrator and the dry residue reconstituted in water, transferred to an HPLC glass vial and analyzed by HPLC-UV method 2 (described above).
Results: Preliminary identification was accomplished by comparing LC elution of metabolites with that of available synthetic standards of putative metabolites (FIG. 2). Metabolites U1, U2 and U3 were characterized based on the retention times.

[2] = Incubation with rat liver cytosol; type: in vitro ADME; details: rat cytosol 1 mg/mL, 2 hours, 10 μM
Procedure: Pooled liver cytosol (1.0 mg protein/mL) suspended in incubation buffer (0.1 M potassium phosphate, pH 7.4) was incubated for 2 hours at 37° C. with 10 μM Compound 1 from a stock solution in DMSO (final DMSO concentration was 0.1%); reaction was initiated with the addition of test article. Incubations with no protein served as control. Reactions were terminated by the addition of 0.1 mL of stop solution (acetonitrile). The samples were vortex-mixed for 30 sec and then centrifuged at 10,000×g for 10 min. The supernatant was dried using a Labconco CentriVap concentrator and the dry residue reconstituted in water, transferred to an HPLC glass vial and analyzed by HPLC-UV method 2 (described above).
Metabolic stability of the proposed metabolites was conducted by incubating the chemically synthesized standards Compound 2, Compound 4 and Compound 3 as described above for Compound 1. When possible, formation of Compound 5 was verified by incubating samples with alkaline phosphatase (10 U) for 60 min at 37° C.

[3] = test system: monkey primary hepatocytes; assay: Metabolic disposition of [^14C]-Compound 1 and [^14C]-2′-C-methyl guanosine in monkey primary hepatocytes (incubation medium, cellular extracts, nucleotide levels); type: in vitro ADME, Cynomolgus monkey; details: for decrease in Compound 1 medium levels: monkey hepatocytes; for decrease in Compound 1 medium levels / % Residual [^14C]-Compound 1 in incubation medium: 10 μM
How it was run: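 Rat, monkey or human primary hepatocytes on collagen I plates (1.6 million cells/mL) were incubated at 37° C with 1 or 10 μM C-8 [^14C]-labelled compound or 2′-C-methyl guanosine for 1, 4, 8 and 24 hours. Medium and 70% methanol cell extracts were analysed by LSC and radio-HPLC. Nucleotides were identified by alkaline phosphatase treatment and retention-time matching to standards.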

CC(C)(CO)C(=O)SCCOP(=O)(NCc1ccccc1)OC[C@H]1O[C@@H](n2cnc3c(=O)[nH]c(N)nc32)[C@](C)(O)[C@@H]1O (mixture of isomers) [Compound 1, 3-hydroxy-2,2-dimethyl-thiopropionic acid S-(2-{[(2R,3R,4R,5R)-5-(2-amino-6-oxo-1,6-dihydro-purin-9-yl)-3,4-dihydroxy-4-methyl-tetrahydro-furan-2-ylmethoxy]-benzylamino-phosphoryloxy}-ethyl) ester]
In vitro metabolite profile in microsomes following incubation with Compound 1 (peak detection) [1]: + | Residual compound following incubation with liver cytosol [2]: 100% | metabolites observed in cellular extracts (% of total radioactivity) ([3]; monkey hepatocytes (Cy230, Cy234), 10 μM [^14C]-Compound 1, 8 h): BLD | metabolites observed in cellular extracts (% of total radioactivity) ([3]; monkey hepatocytes (Cy230, Cy234), 10 μM [^14C]-Compound 1, 24 h): undetected and BLD | metabolites observed in cellular extracts (% of total radioactivity) ([3]; monkey hepatocytes (Cy234), 10 μM [^14C]-Compound 1, 4 h): 3.03% | decrease in Compound 1 medium levels ([3]; 8 hours): about 40% | decrease in Compound 1 medium levels ([3]; 24 hours): 77% | % Residual [^14C]-Compound 1 in incubation medium ([3]; monkey primary hepatocytes (n=2), 0 h): 97% and 91% | % Residual [^14C]-Compound 1 in incubation medium ([3]; monkey primary hepatocytes (n=2), 1 h): 95% and 67% | % Residual [^14C]-Compound 1 in incubation medium ([3]; monkey primary hepatocytes (n=2), 8 h): 63% and 61% | % Residual [^14C]-Compound 1 in incubation medium ([3]; monkey primary hepatocytes (n=2), 24 h): 16% and 31% | % Residual [^14C]-Compound 1 in incubation medium ([3]; monkey primary hepatocytes, 4 h): 66%
